pIC50: −log10 of the molar value. Where a name gives a salt, the structure may show the parent alone.
Target: ROCK2 (Homo sapiens, UniProt O75116)
Experiment: ROCK2 kinase inhibition assay (LABCHIP 3000 Reader, FITC peptide substrate);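 also: rho kinase reaction read by separating phosphorylated from unphosphorylated peptide on chip, with inhibition of kinase activity computed per concentration across a dose-response series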
Details: not given

ROCK2, sequence (O75116 whole entry, species assumed): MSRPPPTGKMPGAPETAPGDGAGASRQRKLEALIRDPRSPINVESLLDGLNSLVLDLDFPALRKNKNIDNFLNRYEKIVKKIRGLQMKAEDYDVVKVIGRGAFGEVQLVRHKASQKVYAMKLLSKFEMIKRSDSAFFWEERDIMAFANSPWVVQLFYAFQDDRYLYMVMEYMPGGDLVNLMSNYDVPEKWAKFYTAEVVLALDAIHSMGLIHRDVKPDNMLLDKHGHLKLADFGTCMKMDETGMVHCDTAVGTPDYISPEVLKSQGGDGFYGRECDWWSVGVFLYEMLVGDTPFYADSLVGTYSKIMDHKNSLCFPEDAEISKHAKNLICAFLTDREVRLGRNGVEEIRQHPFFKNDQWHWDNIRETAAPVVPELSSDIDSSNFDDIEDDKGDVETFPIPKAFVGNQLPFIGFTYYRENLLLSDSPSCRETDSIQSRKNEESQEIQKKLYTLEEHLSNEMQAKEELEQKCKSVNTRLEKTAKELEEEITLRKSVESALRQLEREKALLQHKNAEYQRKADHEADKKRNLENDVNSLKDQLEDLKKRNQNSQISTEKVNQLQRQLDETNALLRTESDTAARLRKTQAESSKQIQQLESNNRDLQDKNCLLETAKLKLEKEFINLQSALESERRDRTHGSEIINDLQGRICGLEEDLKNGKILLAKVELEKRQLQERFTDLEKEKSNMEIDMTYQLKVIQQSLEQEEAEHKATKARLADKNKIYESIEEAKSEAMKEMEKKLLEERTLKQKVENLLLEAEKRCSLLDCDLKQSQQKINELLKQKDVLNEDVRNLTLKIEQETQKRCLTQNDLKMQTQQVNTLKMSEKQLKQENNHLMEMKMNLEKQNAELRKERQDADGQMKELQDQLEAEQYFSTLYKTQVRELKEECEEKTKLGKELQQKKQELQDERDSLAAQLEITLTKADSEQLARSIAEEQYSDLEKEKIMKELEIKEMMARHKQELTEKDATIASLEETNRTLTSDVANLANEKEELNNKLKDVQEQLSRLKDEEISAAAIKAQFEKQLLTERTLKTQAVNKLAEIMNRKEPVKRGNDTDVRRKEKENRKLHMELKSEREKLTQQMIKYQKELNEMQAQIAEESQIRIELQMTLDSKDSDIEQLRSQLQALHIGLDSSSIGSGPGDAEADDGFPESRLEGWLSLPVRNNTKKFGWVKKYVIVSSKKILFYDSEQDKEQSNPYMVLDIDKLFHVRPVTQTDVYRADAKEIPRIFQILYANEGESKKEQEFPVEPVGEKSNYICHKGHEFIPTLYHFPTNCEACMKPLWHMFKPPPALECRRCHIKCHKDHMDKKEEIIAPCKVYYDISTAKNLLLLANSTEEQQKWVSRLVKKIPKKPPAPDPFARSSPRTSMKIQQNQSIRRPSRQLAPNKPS

SMILES	pIC50
NC(=O)c1cccnc1O[C@H]1CC2(C[C@H](NC(=O)c3nnn4cc(-c5cnn(C6CC6)c5)ccc34)C2)C1 (stereo partly drawn) [Example 364, N-((aR)-6-((3-carbamoylpyridin-2-yl)oxy)spiro[3.3]heptan-2-yl)-6-(1-cyclopropyl-1H-pyrazol-4-yl)-[1,2,3]triazolo[1,5-a]pyridine-3-carboxamide]	> 8.30
CC(C)(O)Cn1cc(-c2ccc3c(C(=O)N[C@H]4CC5(C4)C[C@H](Oc4ncccc4C(N)=O)C5)nnn3c2)cn1 (stereo partly drawn) [Example 365, N-((aR)-6-((3-carbamoylpyridin-2-yl)oxy)spiro[3.3]heptan-2-yl)-6-(1-(2-hydroxy-2-methylpropyl)-1H-pyrazol-4-yl)-[1,2,3]triazolo[1,5-a]pyridine-3-carboxamide]	7.30 to 8.30
CC(C)n1cc(-c2ccc3c(C(=O)N[C@H]4CC5(C4)C[C@H](Oc4ncccc4C(N)=O)C5)nnn3c2)c(C(F)(F)F)n1 (stereo partly drawn) [Example 366, N-((aR)-6-((3-carbamoylpyridin-2-yl)oxy)spiro[3.3]heptan-2-yl)-6-(1-isopropyl-3-(trifluoromethyl)-1H-pyrazol-4-yl)-[1,2,3]triazolo[1,5-a]pyridine-3-carboxamide]	7.30 to 8.30
[H][C@]1(Oc2ncccc2C(N)=O)C[C@@]2(C[C@H](NC(=O)c3nnn4cc(N5CCOCC5)ccc34)C2)C1 (stereo partly drawn) [Example 369, N-((aR)-6-((3-carbamoylpyridin-2-yl)oxy)spiro[3.3]heptan-2-yl)-6-morpholino-[1,2,3]triazolo[1,5-a]pyridine-3-carboxamide]	5.60 to 6.60
[H][C@]1(Oc2ncccc2C(N)=O)C[C@@]2(C[C@H](NC(=O)c3cnc4cc(-c5ccc(=O)n(C)c5)ccn34)C2)C1 (stereo partly drawn) [Example 370, N-((aR)-6-((3-carbamoylpyridin-2-yl)oxy)spiro[3.3]heptan-2-yl)-7-(1-methyl-6-oxo-1,6-dihydropyridin-3-yl)imidazo[1,2-a]pyridine-3-carboxamide]	> 8.30
[H][C@]1(Oc2ncccc2C(N)=O)C[C@@]2(C[C@H](NC(=O)c3nn(C(F)F)c4cc(N5CCOCC5)ccc34)C2)C1 (stereo partly drawn) [Example 372, N-((aR)-6-((3-carbamoylpyridin-2-yl)oxy)spiro[3.3]heptan-2-yl)-1-(difluoromethyl)-6-morpholino-1H-indazole-3-carboxamide]	> 8.30
[H][C@]1(Oc2ncccc2C(N)=O)C[C@@]2(C[C@H](NC(=O)c3nnn4c(C5CC5)c(OCc5ccccc5)ccc34)C2)C1 (stereo partly drawn) [Example 374, 6-(benzyloxy)-N-((aR)-6-((3-carbamoylpyridin-2-yl)oxy)spiro[3.3]heptan-2-yl)-7-cyclopropyl-[1,2,3]triazolo[1,5-a]pyridine-3-carboxamide]	6.60 to 7.30
[H][C@]1(Oc2ncccc2C(N)=O)C[C@@]2(C[C@H](NC(=O)c3nnn4cc(OCC(C)(C)O)ccc34)C2)C1 (stereo partly drawn) [Example 375, N-((aR)-6-((3-carbamoylpyridin-2-yl)oxy)spiro[3.3]heptan-2-yl)-6-(2-hydroxy-2-methylpropoxy)-[1,2,3]triazolo[1,5-a]pyridine-3-carboxamide]	6.60 to 7.30

More lines, now with the values ahead:

pIC50	SMILES
> 8.30	Cn1cc(-c2ccc3c(C(=O)N[C@H]4CC5(C4)C[C@H](Oc4ncccc4C(N)=O)C5)nnn3c2)cn1 (stereo partly drawn) [Example 367, N-((aR)-6-((3-carbamoylpyridin-2-yl)oxy)spiro[3.3]heptan-2-yl)-6-(1-methyl-1H-pyrazol-4-yl)-[1,2,3]triazolo[1,5-a]pyridine-3-carboxamide]
7.30 to 8.30	[H][C@]1(Oc2ncccc2C(N)=O)C[C@@]2(C[C@H](NC(=O)c3nnn4cc(Br)ccc34)C2)C1 (stereo partly drawn) [Example 368, 6-bromo-N-((aR)-6-((3-carbamoylpyridin-2-yl)oxy)spiro[3.3]heptan-2-yl)-[1,2,3]triazolo[1,5-a]pyridine-3-carboxamide]
7.30 to 8.30	[H][C@]1(Oc2ncccc2C(N)=O)C[C@@]2(C[C@H](NC(=O)c3cnn4cc(-c5ccc(=O)n(C)c5)ccc34)C2)C1 (stereo partly drawn) [Example 371, N-((aR)-6-((3-carbamoylpyridin-2-yl)oxy)spiro[3.3]heptan-2-yl)-6-(1-methyl-6-oxo-1,6-dihydropyridin-3-yl)pyrazolo[1,5-a]pyridine-3-carboxamide]
5.60 to 6.60	[H][C@]1(Oc2ncccc2C(N)=O)C[C@@]2(C[C@H](NC(=O)c3nnn4c(Cl)c(OCc5ccccc5)ccc34)C2)C1 (stereo partly drawn) [Example 373, 6-(benzyloxy)-N-((aR)-6-((3-carbamoylpyridin-2-yl)oxy)spiro[3.3]heptan-2-yl)-7-chloro-[1,2,3]triazolo[1,5-a]pyridine-3-carboxamide]
7.30 to 8.30	[H][C@]1(Oc2ncccc2C(N)=O)C[C@@]2(C[C@H](NC(=O)c3cc(C4CC4)n4c(Cl)c(OCc5ccccc5)ccc34)C2)C1 (stereo partly drawn) [Example 376, 6-(benzyloxy)-N-((aR)-6-((3-carbamoylpyridin-2-yl)oxy)spiro[3.3]heptan-2-yl)-5-chloro-3-cyclopropylindolizine-1-carboxamide]
7.30 to 8.30	[H][C@]1(Oc2ncccc2C(N)=O)C[C@@]2(C[C@H](NC(=O)c3cnn(-c4ccc(Br)cc4)c3C)C2)C1 (some centres unmarked) [Example 377]
6.60 to 7.30	[H][C@]1(Oc2ncccc2C(N)=O)C[C@@]2(C[C@H](NC(=O)c3cnn(-c4ccc(N5CCOCC5)cc4)c3C)C2)C1 (some centres unmarked) [Example 378]
6.60 to 7.30	[H][C@]1(Oc2ncccc2C(N)=O)C[C@@]2(C[C@H](NC(=O)c3cnn(-c4ccccc4)c3C)C2)C1 (some centres unmarked) [Example 379]
6.60 to 7.30	NC(=O)c1cccnc1OC1CC2(CC(NC(=O)c3cn(-c4ccccc4)nn3)C2)C1 [Example 389, N-[(aR)2-({6-(1-phenyl-1H-1,2,3-triazole)-4-carboxamido]spiro[3.3]heptan-2-yl}oxy)nicotinamide]
5.60 to 6.60	NC(=O)c1cccnc1OC1CC2(CC(NC(=O)c3c[nH]c(-c4ccccc4)n3)C2)C1 [Example 390, N-[(aR)2-({6-(2-phenyl-1H-imidazole)-4-carboxamido]spiro[3.3]heptan-2-yl}oxy)nicotinamide]
6.60 to 7.30	Cc1c(C(=O)NC2CC3(C2)CC(Oc2ncccc2C(N)=O)C3)cnn1-c1ccc(C#N)c(F)c1 (centres unmarked) [Example 391]
6.60 to 7.30	Cc1nc(C(=O)NC2CC3(C2)CC(Oc2ncccc2C(N)=O)C3)c(C)n1-c1ccccc1 (centres unmarked) [Example 392]
7.30 to 8.30	NC(=O)c1cccnc1OC1CC2(CC(NC(=O)c3cnn(-c4cccc(Cl)c4F)c3)C2)C1 (centres unmarked) [Example 393]
7.30 to 8.30	NC(=O)c1cccnc1OC1CC2(CC(NC(=O)c3cnn(-c4cccc(Cl)c4)c3)C2)C1 (centres unmarked) [Example 394]
7.30 to 8.30	COc1cccc(-n2cc(C(=O)NC3CC4(C3)CC(Oc3ncccc3C(N)=O)C4)cn2)c1 (centres unmarked) [Example 395]
7.30 to 8.30	Cn1nc(C(=O)NC2CC3(C2)CC(Oc2ncccc2C(N)=O)C3)cc1-c1ccccc1 (centres unmarked) [Example 396]
7.30 to 8.30	NC(=O)c1cccnc1OC1CC2(CC(NC(=O)c3cnn(-c4ccccc4Cl)c3)C2)C1 (centres unmarked) [Example 397]
7.30 to 8.30	COc1ccccc1-n1cc(C(=O)NC2CC3(C2)CC(Oc2ncccc2C(N)=O)C3)cn1 (centres unmarked) [Example 398]

Same assay, conditions: read-out: ROCK2 Activity (ROCK2 IC50); 5 μM ATP, 1.5 μM peptide substrate, pH 7.5

SMILES	pIC50
COc1ccc2c(c1)CCc1c(C(=O)NC3CC4(C3)CC(Oc3ncccc3C(N)=O)C4)nn(C)c1-2 [Example 380, N-((aR)-6-((3-carbamoylpyridin-2-yl)oxy)spiro[3.3]heptan-2-yl)-7-methoxy-1-methyl-4,5-dihydro-1H-benzo[g]indazole-3-carboxamide]	7.30 to 8.30
COc1ccc2c(c1)CCc1c-2nn(C)c1C(=O)NC1CC2(C1)CC(Oc1ncccc1C(N)=O)C2 [Example 381, N-((aR)-6-((3-carbamoylpyridin-2-yl)oxy)spiro[3.3]heptan-2-yl)-7-methoxy-2-methyl-4,5-dihydro-2H-benzo[g]indazole-3-carboxamide]	5.60 to 6.60
Cc1nn(Cc2ccc(F)cc2)cc1C(=O)NC1CC2(C1)CC(Oc1ncccc1C(N)=O)C2 [Example 382, N-[(aR)2-[(6-{1-[(4-fluorophenyl)methyl]-3-methyl-1H-pyrazole-4-amido}spiro[3.3]heptan-2-yl)oxy]pyridine-3-carboxamide 1 trifluoroacetic acid salt]	7.30 to 8.30
Cc1c(C(=O)N[C@H]2CC3(C2)C[C@H](Oc2ncccc2C(N)=O)C3)cnn1Cc1ccc(F)cc1 (stereo partly drawn) [Example 383, N-[(aR)2-[(6-{1-[(4-fluorophenyl)methyl]-5-methyl-1H-pyrazole-4-amido}spiro[3.3]heptan-2-yl)oxy]pyridine-3-carboxamide 1 trifluoroacetic acid salt]	7.30 to 8.30
Cc1c(C(=O)NC2CC3(C2)CC(Oc2ncccc2C(N)=O)C3)cnn1-c1ccc(Cl)cc1 [Example 384, N-[(aR)2-({6-[1-(4-chlorophenyl)-5-methyl-1H-pyrazole-4-amido]spiro[3.3]heptan-2-yl}oxy)pyridine-3-carboxamid 1 trifluoroacetic acid salt]	7.30 to 8.30
Cc1c(C(=O)NC2CC3(C2)CC(Oc2ncccc2C(N)=O)C3)cnn1-c1ccc(C#N)cc1 [Example 385, N-[(aR)2-({6-[1-(4-cyanophenyl)-5-methyl-1H-pyrazole-4-amido]spiro[3.3]heplan-2-yl}oxy)pyridine-3-carboxamide1 trifluoroacetic acid salt]	7.30 to 8.30
Cc1c(C(=O)NC2CC3(C2)CC(Oc2ncccc2C(N)=O)C3)cnn1-c1ccc(OC(F)(F)F)cc1 [Example 386, N-[(aR)2-[(6-{5-methyl-1-[4-(trifluoromethoxy)phenyl]-1H-pyrazole-4-amido}spiro[3.3]heptan-2-yl)oxy]pyridine-3-carboxamide 1 trifluoroacetic acid salt]	7.30 to 8.30
Cc1c(C(=O)NC2CC3(C2)CC(Oc2ncccc2C(N)=O)C3)cnn1-c1ccc(S(C)(=O)=O)cc1 [Example 387, N-[(aR)2-({6-[1-(4-methanesulfonylphenyl)-5-methyl-1H-pyrazole-4-amido]spiro[3.3]heptan-2-yl}oxy)pyridine-3-carboxamide 1 trifluoroacetic acid salt]	7.30 to 8.30
Cc1c(C(=O)N[C@H]2CC3(C2)C[C@H](Oc2ncccc2C(N)=O)C3)cnn1-c1ccc(C#N)cc1F (stereo partly drawn) [Example 388, N-[(aR)2-({6-[1-(4-cyano-2-fluorophenyl)-5-methyl-1H-pyrazole-4-amido]spiro[3.3]heptan-2-yl}oxy)pyridine-3-carboxamide 1 trifluoroacetic acid salt]	6.60 to 7.30

Source: patent publication US10829501B2 (BRISTOL-MYERS SQUIBB COMPANY, priority 2016, dated 2020)
